Test results reported in publication PMC7504435, “Combined Protein- and Ligand-Observed NMR Workflow to Screen Fragment Cocktails against Multiple Proteins: A Case Study Using Bromodomains” (Molecules, 2020).
Like-named read-outs stand apart in the source and are kept apart here.

Experiments:
PfGCN5 bromodomain [1] = target: T1, PfGCN5 bromodomain (Plasmodium falciparum, UniProt Q8IB67); assay: biochemical; type: binding; conditions: for Initial Mixture PfGCN5 PrOF NMR Δδ: hit mixture containing the fragment, 400 µM each fragment; for Kd: PrOF NMR titration, for 9 average of W1454 and W1379, NS = non-saturating, read-out: PfGCN5 Kd
T1 sequence (Q8IB67 entry or part of it): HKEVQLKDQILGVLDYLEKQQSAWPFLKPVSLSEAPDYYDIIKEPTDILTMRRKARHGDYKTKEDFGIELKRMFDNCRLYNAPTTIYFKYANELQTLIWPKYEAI
Description: (§1) The screening workflow consists of two dependent steps: 1) a PrOF NMR screen of the 5FW-labeled proteins and a cocktail of 4–5 fragments in a single NMR tube; 2) a ^1H CPMG NMR binding assay to deconvolute the hit mixtures for each protein (Figure 1). In the first step, a dual-protein PrOF NMR spectrum was obtained in which 5FW-PfGCN5, 5FW-BPTF (~ 50 µM each) and mixtures of fragments (400 µM individual fragment) were present in the same NMR tube. […] Chemical shift perturbations indicating a ligand binding event were based on a prior cutoff of Δδ ≥ 0.030 ppm as the definition for a hit mixture. This cutoff was based on a statistical analysis of chemical shift perturbations from a prior BRD4 D1 fragment screen and are described further in the experimental section and in Table S2.
(§2) PrOF NMR. PrOF NMR spectra were obtained on a Bruker Avance III HD 500 with the 5 mm Prodigy TCI inverse cryoprobe (^19F S:N 2000:1). […] The DMSO concentration for all experiments was kept constant at 1%. […] For the PrOF NMR screen, 5FW-BPTF and 5FW-PfGCN5 (35–40 µM in 50 mM phosphate, 100 mM NaCl, pH 7.4) were tested with mixtures of 4–5 fragments, where each individual fragment was 400 µM. […] A 10 Hz line broadening was applied. Titrations were fit to Equation (2), where p is the protein concentration and L is the ligand concentration. (2) Δδ=Δδmax × (Kd+P+L ) − (((Kd + P + L )^2) − 4PL)/2P
(§3) A PrOF NMR binding event is characterized as a change in chemical shift (Δδ) from the protein-only spectrum to the protein + fragment mixture spectrum. We used a prior cutoff of Δδ ≥ 0.030 ppm as the definition of a hit mixture, based on a statistical analysis of chemical shift perturbations from a prior BRD4 D1 fragment screen.

BRD4 D1 = conditions: cited from earlier work; for Kd: data from previous screen
BPTF bromodomain [2] = target: T2, BPTF bromodomain (Homo sapiens, UniProt Q12830); assay: PrOF NMR (dual-protein screen of mixtures, titrations) with 5FW-BPTF; type: binding; set-up: against the bromodomains of BPTF and Plasmodium falciparum GCN5 (PfGCN5); his6; made in house; conditions: for Initial Mixture BPTF PrOF NMR Δδ: hit mixture containing the fragment, 400 µM each fragment
Description: as §1, §2, §3

BPTF bromodomain [3] = target: T2, BPTF bromodomain; assay: 1H CPMG NMR deconvolution of hit mixtures, BPTF; type: binding; set-up: deconvolution of the hit mixtures using the non-fluorine-labeled bromodomains; made in house; host or cells: E. coli BL21(DE3); conditions: 10 µM protein, 100 µM ligand; for 1H CPMG NMR % Drop in Resonance Intensity BPTF: for 9 from competition experiments (footnote a)
Description: (§4) The second step is a ^1H CPMG NMR deconvolution of the hit mixtures using the non-fluorine-labeled bromodomains. ^1H CPMG NMR employs a T2 filter to take advantage of the difference in transverse relaxation time between protein and small molecules to filter out the bound-state ligand(s). Unlike the PrOF NMR assay, a single protein is assayed in each experiment. A binding event is characterized by a decrease in ligand resonance intensity from the ligand alone spectrum to the ligand + protein spectrum. A hit is defined as a decrease in resonance intensity ≥ 20%. The ^1H CPMG NMR assay can be tuned by changing the protein or ligand concentration, filter length (Figure 1), or hit criteria depending on how stringent the desired hit rate is. The number of ^1H CPMG NMR deconvolution experiments is directly informed from the first step. If a mixture from the first step was only a hit for one protein, a single ^1H CPMG NMR deconvolution experiment is needed. If a mixture from the first step was a hit for both proteins, two separate ^1H CPMG NMR deconvolutions experiments are needed to determine the fragments that bind to each protein.
(§5) ^1H CPMG NMR. ^1H CPMG NMR screen data were acquired on Bruker Avance III HD 500 with the 5 mm Prodigy TCI cryoprobe inverse cryoprobe (^1H 2500:1 S/N). Competition ^1H CPMG NMR data were acquired on Bruker 700 MHz Avance with a CryoProbe 5 mm TXI (^1H S:N with H2O suppression (2mM sucrose) - 900:1) and excitation sculpting water suppression. Proteins were present at 10 µM in 50 mM phosphate, 100 mM NaCl, pH 7.4 in 100% D2O. In separate NMR tubes, a ^1H CPMG NMR pulse was applied to a 1) mixture of ligands (individual ligands present at 100 µM for the screen and 50 µM for competition experiments) and 2) ligands + protein. […] For the competition experiments, τ was increased to 4.0 ms.

PfGCN5 bromodomain [4] = target: T1, PfGCN5 bromodomain; assay: 1H CPMG NMR deconvolution of hit mixtures, PfGCN5; type: binding; conditions: 10 µM protein, 100 µM ligand; for 1H CPMG NMR % Drop in Resonance Intensity PfGCN5: for 9 from competition experiments (footnote a)
Description: as §4, §5

BPTF bromodomain [5] = target: T2, BPTF bromodomain; conditions: cited from earlier work
PfGCN5 bromodomain [6] = target: T1, PfGCN5 bromodomain; assay: Competition 1H CPMG NMR with PfGCN5; type: binding; conditions: competitor at or above the protein concentration
Source text: The competition ^1H CPMG NMR and PrOF NMR assays were employed to further probe the binding mode of 9 to PfGCN5. […] At high concentrations, at or above the protein concentration, the competition maxed out at ~ 50% (Figure 2, Figure S10, Table S5). Conversely, TP-238 was able to compete 9 off from BPTF at low concentrations.
^1H CPMG NMR. ^1H CPMG NMR screen data were acquired on Bruker Avance III HD 500 with the 5 mm Prodigy TCI cryoprobe inverse cryoprobe (^1H 2500:1 S/N). Competition ^1H CPMG NMR data were acquired on Bruker 700 MHz Avance with a CryoProbe 5 mm TXI (^1H S:N with H2O suppression (2mM sucrose) - 900:1) and excitation sculpting water suppression. Proteins were present at 10 µM in 50 mM phosphate, 100 mM NaCl, pH 7.4 in 100% D2O. In separate NMR tubes, a ^1H CPMG NMR pulse was applied to a 1) mixture of ligands (individual ligands present at 100 µM for the screen and 50 µM for competition experiments) and 2) ligands + protein. For competition experiments, the ligands were used individually, and the competitor ligands were spiked into tube 2. ^1H CPMG NMR parameters for the screen: NS = 128, acquisition time = 2 s, τ = 2.5 ms, and L = 120. For the competition experiments, τ was increased to 4.0 ms.

PfGCN5 bromodomain [7] = target: T1, PfGCN5 bromodomain; assay: 1H-15N HSQC NMR titration with PfGCN5; type: binding; conditions: 1H-15N HSQC titration (Figure S14); read-out: Kd PfGCN5
Source text: To cross-validate our findings, ^1H-^15N HSQC NMR was used to further examine the binding mode of 9 to PfGCN5 in the presence and absence of known ligands. The ^1H-^15N HSQC spectrum of PfGCN5 is unassigned. For ease of spectral interpretation, all resonances that were distinctly visible were assigned as 1-64. Fragment 9, GSK4027, and the acetylated peptide H2A.Z II K7,13ac were titrated against PfGCN5. At the highest ligand concentration, resonances with Δδ > x^− + 0.60*s, where x^− is the mean and s is the standard deviation at the highest concentration, were defined as significant. The correction factor of 0.60 is to compensate for only 60% of the resonances being usable for analysis. Titration of 9 with PfGCN5 gave linear and non-linear dose-dependent chemical shift perturbations. Of the five resonances with non-linear movement, only one (10) was considered to have significant movement. […] This affinity with the non-fluorine-labeled protein is similar but higher than the affinity determined by PrOF NMR. […]
^1H-^15N SOFAST HSQC.^1H-^15N SOFAST HSQC spectra were obtained on a Bruker 600 MHz Avance NEO with a CryoProbe 5 mm TCI (^1H, ^13C, ^15N, ^2H) w/ Z-gradient using Bruker’s IBS_SOFAST.x method with 32 scans, 0.05 s acquisition time, and 0.2 s delay. […] Data were processed with nmrDraw, nmrPipe, and NFRAM Sparky. Δδ^1H-^15N was calculated using Equation (3). […]

[8] = PrOF NMR titration, NS = non-saturating, NB = no binding

## Cc1ccc2c(C#N)c(N)sc2c1 [Fragment 4]
PfGCN5 bromodomain [1]
  Initial Mixture PfGCN5 PrOF NMR Δδ: - (For PrOF NMR = Δδ < 0.029 ppm)
BRD4 D1
  Kd: > 400 µM
BPTF bromodomain [2]; [8]
  BPTF Kd: no binding
  Kd: > 1000 µM
BPTF bromodomain [2]
  Initial Mixture BPTF PrOF NMR Δδ: + (+ = 0.030 < Δδ < 0.049)
BPTF bromodomain [3]
  BPTF CPMG % decrease: 100%
  1H CPMG NMR % Drop in Resonance Intensity BPTF: +++++ (+++++ = 100%)

## COC(=O)N1CCC(CNC(=O)c2ccco2)CC1 [Fragment 2]
PfGCN5 bromodomain [1]
  Kd: 360 µM
  Initial Mixture PfGCN5 PrOF NMR Δδ: +++ (+++ = 0.1 < Δδ < 0.199)
PfGCN5 bromodomain [4]
  PfGCN5 CPMG % decrease: 100%
  1H CPMG NMR % Drop in Resonance Intensity PfGCN5: +++++ (+++++ = 100%)
BRD4 D1
  Kd: 450 µM
BPTF bromodomain [2]
  Initial Mixture BPTF PrOF NMR Δδ: ++ (++ = 0.050 < Δδ < 0.099)

## H2A.Z II K7,13ac peptide N-terminal tail (from UniProt Q71UI9)
BPTF bromodomain [5]
  Kd: 310 µM

## CN1C[C@H](Nc2cnn(C)c(=O)c2Br)C[C@H](c2ccccc2)C1 [GSK4027, reference compound]
PfGCN5 bromodomain [1]
  PrOF NMR titration with 5FW-PfGCN5, result in words: binds PfGCN5 strongly
PfGCN5 bromodomain [6]
  competition maximum in 1H CPMG NMR competition with 9: ~ 50%

## CCC(=O)NCc1nccc(N(C)C)n1 [Fragment 3]
PfGCN5 bromodomain [1]
  Kd: > 1000 µM
  Initial Mixture PfGCN5 PrOF NMR Δδ: ++++ (++++ = Δδ > 0.2)
PfGCN5 bromodomain [4]
  PfGCN5 CPMG % decrease: 82%
  1H CPMG NMR % Drop in Resonance Intensity PfGCN5: ++++ (++++ = 80–99.9%)
BRD4 D1
  Kd: > 400 µM
BPTF bromodomain [2]
  Initial Mixture BPTF PrOF NMR Δδ: - (For PrOF NMR = Δδ < 0.029 ppm)

## Cc1nnc2c3ccccc3c(N[C@@H](C)[C@H](c3ccccc3)N(C)C)nn12 [L-Moses, reference compound]
PfGCN5 bromodomain [6]
  competition maximum in 1H CPMG NMR competition with 9: ~ 50%

## CC(C)CNc1ncc([N+](=O)[O-])c(N)n1 [Fragment 5]
PfGCN5 bromodomain [1]
  Initial Mixture PfGCN5 PrOF NMR Δδ: - (For PrOF NMR = Δδ < 0.029 ppm)
BRD4 D1
  Kd: > 400 µM
BPTF bromodomain [2]; [8]
  Kd: > 1000 µM
BPTF bromodomain [2]
  Initial Mixture BPTF PrOF NMR Δδ: ++ (++ = 0.050 < Δδ < 0.099)
BPTF bromodomain [3]
  BPTF CPMG % decrease: 65%
  1H CPMG NMR % Drop in Resonance Intensity BPTF: +++ (+++60–80%)

## CS(=O)(=O)N1CCC2(CC1)OC(=O)c1ccccc12 [Fragment 7]
PfGCN5 bromodomain [1]
  Kd: 150 µM
  Initial Mixture PfGCN5 PrOF NMR Δδ: +++ (+++ = 0.1 < Δδ < 0.199)
PfGCN5 bromodomain [4]
  PfGCN5 CPMG % decrease: 100%
  1H CPMG NMR % Drop in Resonance Intensity PfGCN5: +++++ (+++++ = 100%)
BRD4 D1
  Kd: > 400 µM
BPTF bromodomain [2]; PrOF NMR titration
  Kd: > 1000 µM
BPTF bromodomain [2]
  Initial Mixture BPTF PrOF NMR Δδ: +++ (+++ = 0.1 < Δδ < 0.199)
BPTF bromodomain [3]
  BPTF CPMG % decrease: 49%
  1H CPMG NMR % Drop in Resonance Intensity BPTF: ++ (++ = 40–59.9%)

## H2A.Z II K7,13ac: acetylated N-terminal tail peptide of a histone protein (AGGKAGKDSGKAKAK; acetyl-Lys7 and acetyl-Lys13 in mature numbering (UniProt K8 and K14); C-terminal amide expected from NovaSyn TGR resin) [reference compound]
PfGCN5 bromodomain [7]
  Kd: 670 µM

## Cc1cccc(NC(=O)C2CCN(S(C)(=O)=O)CC2)c1 [Fragment 6]
PfGCN5 bromodomain [1]
  Initial Mixture PfGCN5 PrOF NMR Δδ: - (For PrOF NMR = Δδ < 0.029 ppm)
PfGCN5 bromodomain [1]; ratio of Kd values
  selectivity, binds PfGCN5 over BPTF: > 6 fold
BRD4 D1; Y/N, previous screen
  Bind BRD4?: not bind
BRD4 D1
  Kd: > 400 µM
BPTF bromodomain [2]; [8]
  Kd: 540 µM
BPTF bromodomain [2]
  Initial Mixture BPTF PrOF NMR Δδ: + (+ = 0.030 < Δδ < 0.049)
BPTF bromodomain [3]
  BPTF CPMG % decrease: 25%
  1H CPMG NMR % Drop in Resonance Intensity BPTF: + (+ = 20–39.9%)

## N#Cc1cccc(C(=O)NC2CCC3OCCOC3C2)c1 (centres unmarked) [Fragment 1]
PfGCN5 bromodomain [1]
  Kd: > 1000 µM
  Initial Mixture PfGCN5 PrOF NMR Δδ: ++ (++ = 0.050 < Δδ < 0.099)
PfGCN5 bromodomain [4]
  PfGCN5 CPMG % decrease: 100%
  1H CPMG NMR % Drop in Resonance Intensity PfGCN5: +++++ (+++++ = 100%)
BRD4 D1
  Kd: > 400 µM
BPTF bromodomain [2]
  Initial Mixture BPTF PrOF NMR Δδ: - (For PrOF NMR = Δδ < 0.029 ppm)
